# US20260193642A1, “DIRECT MEASUREMENT OF ENGINEERED CANCER MUTATIONS AND THEIR TRANSCRIPTIONAL PHENOTYPES IN SINGLE CELLS” (The Board of Trustees of the Leland Stanford Junior …, priority 2022, published 2026)
# What was measured:
# HCT116 cells = experiment: Cell cycle analysis, EdU and propidium iodide flow cytometry assay; assay type: cell-based, human; conditions: 24 hrs nutlin-3a treatment
# Description: Cell cycle analysis: Click-iT™ Plus EdU Alexa Fluor™ 488 Flow Cytometry Assay Kit (Life technologies) was used according to manufacturer's protocol. Briefly, cells were plated a day prior to nutlin-3a or vehicle treatment. After 24 hrs of chemical treatment, cells in S-phase were labeled with […] EdU solution for 2 hrs. FxCycle™ PI/RNase Staining Solution (Life technologies) was used for PI staining. After the staining, cells were analyzed by NovoCyte Quanteon Flow Cytometer Systems (Agilent, Santa Clara, CA, USA).
# The PI assay detects total DNA amounts for G1 and G2-phase comparison. The EdU assay labels newly synthesized DNA to detect S-phase.
# p53 pathway = conditions: U2OS cells (wild-type TP53); 10 μM nutlin-3a; 5 μM, 10 μM and 20 μM tested
# Description: Cell culture conditions: HEK293T (ATCC CRL-11268) and MMNK-1 (JCRB1554) cells were maintained in Dulbecco's modified Eagle's medium (DMEM) with 10% fetal bovine serum (FBS). HCT116 (ATCC CCL-247) cells and U2OS (ATCC HTB-96) were maintained in McCoy's 5A modified medium supplemented with 10% FBS. […] K562 (ATCC CCL-243) cells were maintained in RPMI 1640 with 10% FBS. Cells were authenticated by STR profiling. All cell lines were confirmed by PCR to be free of mycoplasma contamination.
# HCT116 and U2OS human cell lines were used for this study. Both cell lines have wild-type TP53 which was independently confirmed.
compound,measurement,setting,value
COc1ccc(C2=N[C@@H](c3ccc(Cl)cc3)[C@@H](c3ccc(Cl)cc3)N2C(=O)N2CCNC(=O)C2)c(OC(C)C)c1 [nutlin-3a],cell cycle arrest,"HCT116 cells; HCT116 clonal cells with TP53 I195T mutation, FIG. 4C, P=0.95",did not undergo arrest
same,cell cycle arrest,"HCT116 cells; HCT116 clonal cells with TP53 Y220C mutation, FIG. 4C, P=0.95",did not undergo arrest
same,cell cycle arrest,"HCT116 cells; wild-type HCT116 cells, FIG. 4c, P<2.2e-16",arrested
same,p53 pathway activation,p53 pathway,successful p53 pathway activation
